PubChem BioAssay (NCI)
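Assay format: 96-well plates, 48-hour exposure. Here, GI50 denotes the concentration required for 50% inhibition of growth. TGI: concentration producing complete growth inhibition.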

Experiments:
Assay in all cases: NCI-60 cell line screen, 48 h
[1] = system: A498 renal
[2] = system: ACHN renal
[3] = system: BT-549 breast
[4] = system: CAKI-1 renal
[5] = system: CCRF-CEM leukemia
[6] = system: COLO 205 colon
[7] = system: DU-145 prostate
[8] = system: HCC-2998 colon
[9] = system: HCT-15 colon
[10] = system: HL-60(TB) leukemia
[11] = system: HOP-62 NSCLC
[12] = system: HS 578T breast
[13] = system: HT29 colon
[14] = system: K-562 leukemia
[15] = system: KM12 colon
[16] = system: MDA-MB-231 breast
[17] = system: MDA-MB-435
[18] = system: MOLT-4 leukemia
[19] = system: NCI-H226 lung
[20] = system: OVCAR-3 ovarian
[21] = system: OVCAR-5 ovarian
[22] = system: PC-3 prostate
[23] = system: RPMI-8226 leukemia
[24] = system: RXF 393 renal
[25] = system: SK-MEL-2 melanoma
[26] = system: SK-MEL-28 melanoma
[27] = system: SK-MEL-5 melanoma
[28] = system: SN12C renal
[29] = system: SNB-19 CNS
[30] = system: SNB-75 CNS
[31] = system: SW-620 colon
[32] = system: TK-10 renal
[33] = system: UO-31 renal
[34] = system: 786-0 renal
[35] = system: A549 NSCLC
[36] = system: EKVX NSCLC
[37] = system: HCT-116 colon
[38] = system: HOP-92 NSCLC
[39] = system: IGROV1 ovarian
[40] = system: LOX IMVI melanoma
[41] = system: M14 melanoma
[42] = system: MALME-3M melanoma
[43] = system: MCF7 breast
[44] = system: NCI-H23 lung
[45] = system: NCI-H460 lung
[46] = system: NCI-H522 lung
[47] = system: NCI/ADR-RES ovarian
[48] = system: OVCAR-4 ovarian
[49] = system: OVCAR-8 ovarian
[50] = system: SF-268 CNS
[51] = system: SF-295 CNS
[52] = system: SF-539 CNS
[53] = system: SK-OV-3 ovarian
[54] = system: SR leukemia
[55] = system: T-47D breast
[56] = system: U251 CNS
[57] = system: UACC-257 melanoma
[58] = system: UACC-62 melanoma

In the case of `Nc1cc(-c2c[nH]c3ccc(F)cc23)nc2cc(-c3c[nH]c4ccc(F)cc34)nn12`, the GI50 [1] is reported as 1.66 µM, the TGI [1] is reported as 3.25 µM and the GI50 [2] is reported as 1.88 µM. It also gave a TGI [2] of 3.46 µM, a GI50 [3] of 13.3 µM and a TGI [3] of 34.9 µM. For the same molecule, the GI50 [4] was 2.03 µM, the TGI [4] was 5.29 µM and the GI50 [5] was 3.13 µM. The TGI [5] was over 100 µM, the GI50 [6] was 1.74 µM and the TGI [6] was 3.15 µM. It also gave a GI50 [7] of 2.21 µM, a TGI [7] of 4.73 µM and a GI50 [8] of 1.95 µM. The TGI [8] was 3.47 µM, the GI50 [9] was 1.79 µM and the TGI [9] was 3.69 µM. For the same molecule, the GI50 [10] was 1.94 µM, the TGI [10] was 5.36 µM and the GI50 [11] was 2.06 µM. The TGI [11] was 5.85 µM, the GI50 [12] was 2.35 µM and the TGI [12] was 5.71 µM. It also gave a GI50 [13] of 1.8 µM, a TGI [13] of 3.31 µM and a GI50 [14] of 2.92 µM. It also gave a TGI [14] of over 100 µM, a GI50 [15] of 2 µM and a TGI [15] of 4.26 µM. It also gave a GI50 [16] of 1.85 µM, a TGI [16] of 3.49 µM and a GI50 [17] of 1.74 µM. For the same molecule, the TGI [17] was 3.39 µM, the GI50 [18] was 2.33 µM and the TGI [18] was 7.29 µM. The GI50 [19] was 2.28 µM, the TGI [19] was 5.52 µM and the GI50 [20] was 1.75 µM. It also gave a TGI [20] of 3.19 µM, a GI50 [21] of 1.83 µM and a TGI [21] of 3.77 µM. For the same molecule, the GI50 [22] was 2.11 µM, the TGI [22] was 5.31 µM and the GI50 [23] was 3.05 µM. The TGI [23] was over 100 µM, the GI50 [24] was 1.88 µM and the TGI [24] was 3.48 µM. It also gave a GI50 [25] of 14.6 µM, a TGI [25] of 35.3 µM and a GI50 [26] of 1.83 µM. It also gave a TGI [26] of 3.33 µM, a GI50 [27] of 1.84 µM and a TGI [27] of 3.28 µM. The GI50 [28] was 1.92 µM, the TGI [28] was 3.73 µM and the GI50 [29] was 3.03 µM. It also gave a TGI [29] of 8.97 µM, a GI50 [30] of 16.3 µM and a TGI [30] of 36.6 µM. For the same molecule, the GI50 [31] was 1.78 µM, the TGI [31] was 3.3 µM and the GI50 [32] was 2.22 µM. It also gave a TGI [32] of 4.19 µM, a GI50 [33] of 1.68 µM and a TGI [33] of 3.45 µM.

`O=C(NNc1nc2cc(F)ccc2n2c(CN3CCCC3)ccc12)c1cnccn1` gave a GI50 [34] of 2.07 µM, a TGI [34] of 11.3 µM and a GI50 [1] of 1.31 µM. For the same molecule, the TGI [1] was 4.99 µM, the GI50 [35] was 1.38 µM and the TGI [35] was 12.2 µM. For the same molecule, the GI50 [2] was 0.899 µM, the TGI [2] was over 100 µM and the GI50 [3] was 3.26 µM. For the same molecule, the TGI [3] was 26 µM, the GI50 [4] was 1.61 µM and the TGI [4] was 18.1 µM. It also gave a GI50 [5] of 0.521 µM, a TGI [5] of over 100 µM and a GI50 [6] of 1.62 µM. It also gave a TGI [6] of 15.1 µM, a GI50 [7] of 1.49 µM and a TGI [7] of 13 µM. For the same molecule, the GI50 [36] was 1.01 µM, the TGI [36] was 16.2 µM and the GI50 [8] was 3.51 µM. The TGI [8] was 27.8 µM, the GI50 [37] was 0.725 µM and the TGI [37] was 12.4 µM. It also gave a GI50 [9] of 0.324 µM, a TGI [9] of 21.7 µM and a GI50 [10] of 1.43 µM. The TGI [10] was 4.84 µM, the GI50 [11] was 0.613 µM and the TGI [11] was 6.3 µM. The GI50 [38] was 2.6 µM, the TGI [38] was 28.9 µM and the GI50 [12] was 4.55 µM. It also gave a TGI [12] of over 100 µM, a GI50 [13] of 0.599 µM and a TGI [13] of 14.1 µM. For the same molecule, the GI50 [39] was 0.747 µM, the TGI [39] was 11.5 µM and the GI50 [14] was 0.599 µM. The TGI [14] was over 100 µM, the GI50 [15] was 1.19 µM and the TGI [15] was 16.5 µM. For the same molecule, the GI50 [40] was 0.893 µM, the TGI [40] was 11 µM and the GI50 [41] was 1.61 µM. It also gave a TGI [41] of 12.1 µM, a GI50 [42] of 2.81 µM and a TGI [42] of 54.2 µM. The GI50 [43] was 0.932 µM, the TGI [43] was 8.1 µM and the GI50 [16] was 2.3 µM. The TGI [16] was 20.2 µM, the GI50 [17] was 3.95 µM and the TGI [17] was over 100 µM. The GI50 [18] was 0.773 µM, the TGI [18] was over 100 µM and the GI50 [19] was 3.33 µM. For the same molecule, the TGI [19] was 23.1 µM, the GI50 [44] was 2.45 µM and the TGI [44] was 18.5 µM. For the same molecule, the GI50 [45] was 0.568 µM, the TGI [45] was 5.43 µM and the GI50 [46] was 2.12 µM. The TGI [46] was 5.55 µM, the GI50 [47] was 0.569 µM and the TGI [47] was 6.32 µM. The GI50 [48] was 2.05 µM, the TGI [48] was 55.8 µM and the GI50 [21] was 1.31 µM. The TGI [21] was 16.1 µM, the GI50 [49] was 1 µM and the TGI [49] was 10.6 µM. For the same molecule, the GI50 [22] was 2.17 µM, the TGI [22] was 19.8 µM and the GI50 [23] was 0.955 µM. It also gave a TGI [23] of 49.2 µM, a GI50 [24] of 1.62 µM and a TGI [24] of 7.56 µM. For the same molecule, the GI50 [50] was 1.38 µM, the TGI [50] was 33.9 µM and the GI50 [51] was 0.627 µM. For the same molecule, the TGI [51] was 15.8 µM, the GI50 [52] was 1.49 µM and the TGI [52] was 10.4 µM. The GI50 [25] was 2.48 µM, the TGI [25] was 10.8 µM and the GI50 [26] was 3.4 µM. It also gave a TGI [26] of 21.4 µM, a GI50 [27] of 2.81 µM and a TGI [27] of 8.1 µM. For the same molecule, the GI50 [53] was 1.67 µM, the TGI [53] was 12.8 µM and the GI50 [28] was 2.16 µM. For the same molecule, the TGI [28] was over 100 µM, the GI50 [29] was 2.39 µM and the TGI [29] was 24.6 µM. It also gave a GI50 [30] of 3.72 µM, a TGI [30] of 30.9 µM and a GI50 [54] of 0.416 µM. It also gave a TGI [54] of over 100 µM, a GI50 [31] of 1.93 µM and a TGI [31] of 16.7 µM. The GI50 [55] was 2.39 µM, the TGI [55] was 48.2 µM and the GI50 [32] was 1.6 µM. For the same molecule, the TGI [32] was 9.84 µM, the GI50 [56] was 1.19 µM and the TGI [56] was 14.6 µM. For the same molecule, the GI50 [57] was 2.14 µM, the TGI [57] was 6.87 µM and the GI50 [58] was 2.62 µM. For the same molecule, the TGI [58] was 8.34 µM, the GI50 [33] was 0.375 µM and the TGI [33] was 9.57 µM.
